These results are taken from US12227536B2, “Crystalline forms of an NRTTI compound” (Merck Sharp & Dohme LLC, priority 2018, dated 2025).

Data set [1] concerns lymphoid derived cell lines and peripheral blood mononuclear cells. The following applies: in vitro; cited from earlier work.
Data set [2] is described as follows: Solubility of EFdA Forms 1, 2 and 4 in acetonitrile as a function of temperature. Type of data set: physicochemical. To be noted: for Solubility / Solubility Ratio (Form 1/4): acetonitrile; for Form 1 and Form 4 ΔΔG: calculated; for Relative thermodynamic stability of the phase: from solubility in acetonitrile between 25.0 and 65.0 °C. How it is done:
The Gibbs free energy (ΔG) of a phase is the fundamental thermodynamic parameter that determines the relative stability of a polymorphs at a given temperature. The solubility of a particular polymorph is related to the ΔG by the equation ΔG=−RTln (solubility). The polymorph with the lowest solubility is considered to be the thermodynamically stable phase at a given temperature. Table 6 lists the measured solubility for Forms 1, 2 and 4 of EFdA in acetonitrile between 25.0 and 65.0° C. […] The relatively low ΔΔG values for conversion of Form 1 to Form 4 (i.e., the energy gap between Form 1 and Form 4 is small; 0.21-0.35 kJ/mol), combined with the fast crystallization kinetics of Form 1 as compared to Form 4, result in difficulties isolating Form 4 using conventional methods of polymorph screening.

Data set [3] is described as follows: Critical water activity from solubility in acetonitrile as a function of water content. The following applies: 25 °C. Type of data set: physicochemical. As for the experimental part: The thermodynamic parameter for the stability of the monohydrate Form MH and anhydrate Form 4 of EFdA is the critical water activity. Below this water activity, anhydrous Form 4 is thermodynamically preferred. Above this water activity, monohydrate Form MH is thermodynamically preferred. The solubility of EFdA monohydrate Form MH and anhydrate Forms 1 and 4 were determined in acetonitrile as a function of water content at 25.0° C. The critical water activity for the EFdA monohydrate/Form 4 system at 25° C. was determined to be 0.3.

Data set [4] in a line: Crystal form stability in hot melt extrusion (HME) of EFdA/EVA implant product, by XRD. Type of data set: physicochemical. As for the experimental part:
Anhydrate crystalline Forms 1, 2, and 4 of EFdA were isolated by hot melt extrusion (HME) processing. Micronized ethylene vinyl acetate (EVA) polymer and monohydrate crystalline Form MH of EFdA were blended with a Turbula T2F mixer at various ratios: 30, 35, 40, 45 and 50 wt % drug. The pre-blend was hot melt extruded with an 18 mm Leistritz twin screw extruder with a 25:1 L/D, throughput of 400 g/hr, temperatures ranging from 100-140° C., feed zone at 40° C., and screw speed at 30 rpm. Two screw configurations were used, both predominately consisting of conveying elements with different mixing sections. The less aggressive screw design contained a mixing section consisting of conveying, kneading elements each 15 mm in length, with twisting angles of 30°, 60°, and 60° (“HME low shear Process A”). The more aggressive screw design included additional mixing segments after the mixing section used in the less aggressive design: conveying, kneading elements each 15 mm in length, with a twisting angle of 90° (“HME high shear Process B”). For both extrusion set-ups, the strands were then air-cooled and pelletized to form micropellets. The pellets were then extruded with a ½″ American Kuhne single screw extruder with temperatures ranging from 110-140° C., feed zone at 25° C., and screw speed at 20-25 rpm to form a 2±0.05 mm diameter filament, and then cut to a length of 40±2 mm. […]

As for `C#C[C@]1(COP(=O)(O)OP(=O)(O)OP(=O)(O)O)O[C@@H](n2cnc3c(N)nc(F)nc32)C[C@@H]1O` [EFdA-TP], the Intracellular half-life result in data set [1] was “exceeds 72 hrs”.
Consider `C#C[C@]1(CO)O[C@@H](n2cnc3c(N)nc(F)nc32)C[C@@H]1O` [Form 1, 4′-Ethynyl-2-fluoro-2′-deoxyadenosine], for which the Solubility in data set [2] (25.0 °C) was determined as 2.15 ± 0.02 mg/g solv; in data set [2] (35.0 °C), 2.43 ± 0.01 mg/g solv; in data set [2] (45.0 °C), 3.44 ± 0.02 mg/g solv; in data set [2] (55.0 °C), 4.74 ± 0.02 mg/g solv; in data set [2] (65.0 °C), 6.81 ± 0.03 mg/g solv. The “Solubility Ratio (Form 1/4)” value in data set [2] (25.0 °C) is recorded as 1.15; in data set [2] (35.0 °C) it was 1.13; in data set [2] (45.0 °C), 1.08; in data set [2] (55.0 °C), 1.12; in data set [2] (65.0 °C), 1.13. For the same compound, the “ΔΔG for conversion of Form 1 to Form 4 (energy gap)” value in data set [2] (between 25.0 and 65.0 °C) fell in the range of 0.0502 to 0.0837 kcal/mol. For the same compound, the “Form 1 and Form 4 ΔΔG” value was 0.0837 kcal/mol in data set [2] (25.0 °C); 0.0789 kcal/mol in data set [2] (35.0 °C); 0.0502 kcal/mol in data set [2] (45.0 °C); 0.0717 kcal/mol in data set [2] (55.0 °C); 0.0789 kcal/mol in data set [2] (65.0 °C).
As for `C#C[C@]1(CO)O[C@@H](n2cnc3c(N)nc(F)nc32)C[C@@H]1O` [Form 2, 4′-Ethynyl-2-fluoro-2′-deoxyadenosine], the Solubility in data set [2] (25.0 °C) is reported as 2.43 ± 0.01 mg/g solv; in data set [2] (35.0 °C), 3.20 ± 0.03 mg/g solv; in data set [2] (45.0 °C) it was 4.39 ± 0.04 mg/g solv; in data set [2] (55.0 °C), 5.79 ± 0.09 mg/g solv; in data set [2] (65.0 °C), 7.72 ± 0.12 mg/g solv. Also, in data set [2], the “Relative thermodynamic stability of the phase” value was “least stable phase”.
Regarding `C#C[C@]1(CO)O[C@@H](n2cnc3c(N)nc(F)nc32)C[C@@H]1O` [Form 4, 4′-Ethynyl-2-fluoro-2′-deoxyadenosine], the Solubility in data set [2] (25.0 °C) turned out to be 1.87 ± 0.02 mg/g solv; in data set [2] (35.0 °C), 2.14 ± 0.02 mg/g solv; in data set [2] (45.0 °C), 3.18 ± 0.01 mg/g solv; in data set [2] (55.0 °C) it was 4.24 ± 0.01 mg/g solv; in data set [2] (65.0 °C), 6.05 ± 0.05 mg/g solv. Besides, the “Relative thermodynamic stability of the phase” value in data set [2] was “most thermodynamically stable phase”. Also, the “Critical water activity, EFdA monohydrate/Form 4 system” value in data set [3] stood at 0.3.
As to `C#C[C@]1(CO)O[C@@H](n2cnc3c(N)nc(F)nc32)C[C@@H]1O` [Form MH, 4′-Ethynyl-2-fluoro-2′-deoxyadenosine], the “Crystal form after HME processing” value was “converted the Form MH phase into anhydrate Form 4” in data set [4] (HME high shear Process B); “converted the Form MH phase into anhydrate Form 1 and anhydrate Form 2” in data set [4] (HME low shear Process A).
